Columns and labels:
[1] = biological target: T1, Cholecystokinin receptor type A (Rattus norvegicus, UniProt P30551); assay: Binding affinity towards CCK-A receptor in rat pancreas membrane using Hunter labelled CCK-8S assay; format: cell membranes
T1 sequence (P30551 whole entry): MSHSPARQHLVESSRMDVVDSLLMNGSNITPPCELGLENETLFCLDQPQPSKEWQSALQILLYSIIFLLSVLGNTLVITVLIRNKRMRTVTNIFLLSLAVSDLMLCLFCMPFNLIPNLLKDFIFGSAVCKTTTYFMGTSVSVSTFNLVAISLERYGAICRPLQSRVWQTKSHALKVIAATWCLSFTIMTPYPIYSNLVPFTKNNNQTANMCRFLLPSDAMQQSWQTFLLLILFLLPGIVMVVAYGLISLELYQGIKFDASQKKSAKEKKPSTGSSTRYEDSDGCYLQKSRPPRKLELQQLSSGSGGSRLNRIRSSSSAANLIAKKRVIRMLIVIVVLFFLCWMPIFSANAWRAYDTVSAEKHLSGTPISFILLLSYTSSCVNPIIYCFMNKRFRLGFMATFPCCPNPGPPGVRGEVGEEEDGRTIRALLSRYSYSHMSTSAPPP

[2] = biological target: T2, Gastrin/cholecystokinin type B receptor (Mus musculus, UniProt P56481); assay: Binding affinity towards CCK-B receptor in mouse cerebral cortex membrane using [125I]bolton assay; format: cell membranes
T2 sequence (P56481 whole entry): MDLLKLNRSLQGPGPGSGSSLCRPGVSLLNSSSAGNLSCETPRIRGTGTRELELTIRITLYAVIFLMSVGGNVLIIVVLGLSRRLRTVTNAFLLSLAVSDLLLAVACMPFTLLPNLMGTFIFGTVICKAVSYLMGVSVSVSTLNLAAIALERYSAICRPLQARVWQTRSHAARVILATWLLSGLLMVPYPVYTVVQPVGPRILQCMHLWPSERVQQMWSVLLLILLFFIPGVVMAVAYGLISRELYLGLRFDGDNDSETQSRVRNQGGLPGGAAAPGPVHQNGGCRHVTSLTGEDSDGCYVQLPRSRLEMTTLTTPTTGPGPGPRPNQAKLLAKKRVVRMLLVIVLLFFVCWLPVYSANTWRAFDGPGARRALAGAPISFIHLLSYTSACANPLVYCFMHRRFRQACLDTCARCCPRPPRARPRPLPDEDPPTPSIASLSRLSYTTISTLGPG

Ki [1] [nM] | Ki [2] [nM] | SMILES
392 | 0.88 | C[C@](Cc1c[nH]c2ccccc12)(NC(=O)OC1C2CC3CC(C2)CC1C3)C(=O)N[C@@H](CC(=O)O)Cc1ccc(N=[N+]=[N-])c(I)c1 (some centres undefined)
158 | 0.52 | C[C@](Cc1c[nH]c2ccccc12)(NC(=O)OC1C2CC3CC(C2)CC1C3)C(=O)N[C@@H](CC(=O)O)Cc1ccc(N)c(I)c1 (some centres undefined)

— ChEMBL document CHEMBL1128058, “Synthesis of novel iodinated radioligands with high affinity and selectivity for CCK-B/gastrin receptors” (Bioorg Med Chem Lett, 1995)
